Several values for one entry are separate records, joined by “and”; a condition that tells them apart may be missing. Equal values may be shown once. Entries after “also recorded” stand apart in the source; their conditions may differ.

The test system of one assay is hepatic GSH. In words: Hepatic GSH content by GSH peroxidase-reductase assay. The class given is in vivo, rat. As to the method:
Summary: GSH depletion was induced in 5 week old Wistar rats using buthionine sulfoximine (BS), 2 mmol/kg bw, i.p. for 20 days. Control rats were injected with an equal volume of saline. Insulin sensitivity was measured using a euglycemic clamp, the Rapid Insulin Sensitivity Test-RIST. In both the saline group (SG) and BSO group (BG) a control RIST followed by a RIST post-[…] NOS competitive antagonist, and a RIST post-SIN-1 (5 mg/kg i.p.v.), a NO donor, were performed. The liver was removed for further determined of hepatic GSH content using the GSH peroxidase-reductase assay. […] The control RIST, 248.0±15.8 mg glucose/kg for SG, was impaired in the BG (158.4±12.2 mg glucose/kg; p<0.01). After L-NAME the SG RIST was 129.0±1.9 mg glucose/kg and the BG RIST was 109.0±9.1 mg glucose/kg. […] HISS action, quantified by subtracting the post L-NAME RIST from the control RIST, was 114.0±15.8 mg glucose/kg for SG and only 49.3±8.6 mg glucose/kg for BG (p<0.01). HISS dependent insulin resistance appears to be related to impaired levels of GSH in the liver, leading to a compromised HISS secretion/release. […] CONTENT: […] Hepatic GSH content was decreased in 48.3±6.9% in BSO group. ***=p<0.001.

Another assay concerns Wistar rats. The assay can be described thus: Rapid Insulin Sensitivity Test (RIST), euglycemic clamp, in saline and BSO (GSH-depleted) rats. The class given is in vivo, rat. An excerpt:
The rapid insulin sensitivity test (RIST) was employed (Lautt et al., Can. J. Physiol. Pharmacol. 76:1080 (1998)) is employed to avoid the complexity of the reaction to hypoglycemia. The RIST involves use of a euglycemic clamp following the administration of insulin and quantitation of the response as the amount of glucose required to be infused over the test period in order to hold arterial blood glucose levels constant. […] It is highly reproducible with up to five consecutive responses being obtainable in cats and four in rats with blood glucose levels returning to control levels between each test. Insulin, glucagon, and catecholamine levels remain unchanged between tests.
Summary: GSH depletion was induced in 5 week old Wistar rats using buthionine sulfoximine (BS), 2 mmol/kg bw, i.p. for 20 days. Control rats were injected with an equal volume of saline. Insulin sensitivity was measured using a euglycemic clamp, the Rapid Insulin Sensitivity Test—RIST. In both the saline group (SG) and BSO group (BG) a control RIST followed by a RIST post-L-NAME (1 mg/kg i.p.v.), a NOS competitive antagonist, and a RIST post-SIN-1 (5 mg/kg i.p.v.), a NO donor, were performed. The liver was removed for further determined of hepatic GSH content using the GSH peroxidase-reductase assay. […] The control RIST, 248.0±15.8 mg glucose/kg for SG, was impaired in the BG (158.4±12.2 mg glucose/kg; p<0.01). After L-NAME the SG RIST was 129.0±1.9 mg glucose/kg and the BG RIST was 109.0±9.1 mg glucose/kg. […] HISS action, quantified by subtracting the post L-NAME RIST from the control RIST, was 114.0±15.8 mg glucose/kg for SG and only 49.3±8.6 mg glucose/kg for BG (p<0.01). HISS dependent insulin resistance appears to be related to impaired levels of GSH in the liver, leading to a compromised HISS secretion/release.
Male Wistar rats (8 weeks) were anaesthetized with sodium pentobaribtial (65 mg/kg). Body temperature was maintained at 37±0.5 °C. An arterial-venous loop (carotid artery and internal jugular vein) was employed. A catheter was inserted into the portal vein.
RIST (Rapid Insulin Sensitivity Test): Blood samples (25 μl) for arterial glucose analysis were taken from the arterial-venous loop. A stable glucose baseline was established. Insulin (50 mU/kg i.v.) was infused over 5 minutes. Arterial blood samples were taken every 2 minutes. Glucose was adjusted to maintain euglycemia. RIST index=mg glucose/kg infused during RIST.

The test system of the next assay is fasting-induced HDIR. The assay can be described thus: Fasting-induced HISS-dependent insulin resistance (HDIR) model, overnight fast. In kind it is in vivo. The text has this: A model of low hepatic GSH and NO production is produced by overnight fasting.
Another assay deals with hepatic glutathione. Conditions: cited from earlier work.
The test system of another assay is HISS. The assay can be described thus: HISS action after NOS blockade. The class given is in vivo.
The next assay deals with cats. Conditions: cited from earlier work.

As to `CCCCS(=N)(=O)CCC(N)C(=O)O` (centres unmarked) [BSO, buthionine sulfoximine], in the assay with hepatic GSH (BSO group compared to saline/control group), the “reduction in hepatic GSH content” value is given as 48.3±6.9%. For the same molecule, the “hepatic GSH content” value with hepatic GSH (BSO group, BSO 2 mmol/kg bw i.p. for 20 days) is given as 2.96±0.4 μmol/g fresh liver. For the same molecule, the “control RIST index in BSO group” value in the assay on Wistar rats (BSO 2 mmol/kg bw i.p. for 20 days, before L-NAME) was found to be 158.4±12.2 mg glucose/kg. The “decrease of HISS action” value in the assay with Wistar rats (BSO group compared to control group) was determined as 64.4%. In addition, in the assay on Wistar rats (BSO group versus control group), the “HISS-independent component of insulin action” value is on record as “not different”. Moreover, in the assay with Wistar rats (BSO group, control RIST minus post L-NAME RIST), the “HISS action (HISS-dependent component of insulin action)” value is 49.3±8.6 mg glucose/kg and 49.3±8.56 mg glucose/kg.
In the case of `N[C@@H](CCC(=O)N[C@@H](CS)C(=O)NCC(=O)O)C(=O)O` [GSH, glutathione], the “reversal of HDIR / reduction in insulin resistance by GSH alone” value with fasting-induced HDIR (GSH by itself) is listed as “small but significant reduction in insulin resistance; also recorded: minor reversal of HDIR”. In addition, the “insulin sensitivity / reversal of HDIR by GSH together with NO donor” value in the assay with fasting-induced HDIR (GSH plus NO / NO donor) is on record as “Improved insulin sensitivity; also recorded: only becomes therapeutically significant after the addition of the NO donor”.
With `COC(=O)[C@@H](N)CCCNC(=N)N[N+](=O)[O-]` [L-NAME], the “RIST index post-L-NAME in BSO group” value in the assay with Wistar rats (BSO-treated rats, L-NAME 1 mg/kg intraportal) was 109.0±9.1 mg glucose/kg and 109.8±9.1 mg glucose/kg. The “inhibition of RIST index by L-NAME” value in the assay with Wistar rats (control group, L-NAME 1 mg/kg i.p.v.) came to 52.3±5.8%.
As for `C[S+](CC[C@H](N)C(=O)O)C[C@H]1O[C@@H](n2cnc3c(N)ncnc32)[C@H](O)[C@@H]1O` (some centres unmarked) [SAMe, S-adenosylmethionine], the “time of peak glutathione levels” value with hepatic glutathione (after oral administration of SAMe) is 3 to 6 h. Further, the “intrahepatic glutathione after SAMe administration” value with hepatic glutathione (in vivo) was “restored to near-normal levels”.
Regarding `[NH-]c1c[n+](N2CCOCC2)no1` [SIN-1, 3-morpholinosyndnonimine], in the assay with fasting-induced HDIR (SIN-1 2.5 to 10 mg/kg i.p.v., overnight fast), the “reversal of fasting induced HDIR by SIN-1 alone” value is reported as “do not reverse fasting induced HDIR”. In the assay on HISS, the “HISS action after NOS blockade” value was “reverses HISS inhibition after NOS blockade”. The “restoration of RIST index / insulin action by SIN-1 in BSO group” value in the assay on Wistar rats (BSO-treated rats, SIN-1 5 mg/kg i.p.v. after L-NAME, 5 mg/kg) was “only restored insulin action in the SG; also recorded: did not reverse the RIST index to control values”. For the same molecule, the “RIST index post-SIN-1” value in the assay with Wistar rats (saline/control group, SIN-1 5 mg/kg i.p.v. after L-NAME, 5 mg/kg) was 246.0±11.5 mg glucose/kg and 258.1±18.5 mg glucose/kg.
Turning to `CN1[C@@H]2CC[C@H]1C[C@@H](OC(=O)C(CO)c1ccccc1)C2` (some centres unmarked) [atropine], the hepatic glucose response result in the assay with cats (arterial-venous glucose response to bolus insulin after atropine) is given as “not notably altered”.
`COc1ccccc1CNCCCCCCNCCCCCCCCNCCCCCCNCc1ccccc1OC` [methoctramine]: the “dose producing full / similar degree of insulin resistance” value with cats is recorded as 10^−6 μmol/kg.
`CN1CCN(CC(=O)N2c3ccccc3C(=O)Nc3cccnc32)CC1` [pirenzepine]: in the assay with cats, the “dose producing a similar degree of insulin resistance” value is reported as 10^−7 mmol/kg.
Nitroprusside: in the assay with HISS, the “HISS action after NOS blockade” value is “not able to restore HISS action after NOS blockade”.

Source of the values: patent US7622447B2, “Use of glutathione synthesis stimulating compounds in reducing insulin resistance” (DiaMedica Inc., priority 2002, dated 2009).
